From patent US20240270821A1, “GIP/GLP1/GCG TRI-RECEPTOR AGONISTS AND USES THEREOF” (priority 2023, published 2024)
Read-outs that look alike come from different tables or passages of the source. Starred links: 1 amine or outer side, 2 acyl side, 3 side chain; linkers in the order of their positions; H or OH if unused. Non-standard residues stand in square brackets, D forms with d. Residues, ends and D or L forms follow the SMILES beside them. Groups on a side chain read outwards from the residue. No end group written: not given here. *: point of attachment. C20 diacid = O=C(O)CCCCCCCCCCCCCCCCCCC(=O)*; C18 diacid = O=C(O)CCCCCCCCCCCCCCCCC(=O)*; αMePhe(2-F) = C[C@](N)(Cc1ccccc1F)C(=O)O; γGlu = O=C(O)[C@H](CCC(=O)[*:2])N[*:1]; αMe4Pal = C[C@](N)(Cc1ccncc1)C(=O)O; αMeY = C[C@](N)(Cc1ccc(O)cc1)C(=O)O; 4Pal = N[C@@H](Cc1ccncc1)C(=O)O; αMeL = CC(C)C[C@](C)(N)C(=O)O; αMeS = C[C@](N)(CO)C(=O)O; Orn = NCCC[C@H](N)C(=O)O; AEEA = NCCOCCOCC(=O)O; Aib = CC(C)(N)C(=O)O

Tests used:
Assay type in all cases: cell-based
[1] = molecular target: T1, hGIPR (Homo sapiens, UniProt P48546); test: Functional cAMP activity in the presence of 1% HSA; conditions: read-out: cAMP Rel EC50, hGIPR
T1 sequence (P48546 22-466): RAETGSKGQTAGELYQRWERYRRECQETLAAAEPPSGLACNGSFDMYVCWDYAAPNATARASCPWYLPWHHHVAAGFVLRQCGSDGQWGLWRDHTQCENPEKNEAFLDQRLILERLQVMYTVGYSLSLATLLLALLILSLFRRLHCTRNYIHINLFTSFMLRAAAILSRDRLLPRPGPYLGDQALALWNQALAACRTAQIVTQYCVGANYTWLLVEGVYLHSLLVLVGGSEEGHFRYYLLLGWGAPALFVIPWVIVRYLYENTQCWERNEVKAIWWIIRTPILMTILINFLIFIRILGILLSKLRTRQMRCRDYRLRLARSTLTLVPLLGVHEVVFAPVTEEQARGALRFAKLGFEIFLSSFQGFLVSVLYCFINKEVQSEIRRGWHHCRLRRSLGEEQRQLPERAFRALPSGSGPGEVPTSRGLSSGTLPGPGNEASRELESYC

[2] = molecular target: human GcgR (Homo sapiens, UniProt P47871); test: Functional cAMP activity in the presence of 1% HSA; conditions: read-out: cAMP Rel EC50, hGcgR
human GcgR, sequence (P47871 26-477): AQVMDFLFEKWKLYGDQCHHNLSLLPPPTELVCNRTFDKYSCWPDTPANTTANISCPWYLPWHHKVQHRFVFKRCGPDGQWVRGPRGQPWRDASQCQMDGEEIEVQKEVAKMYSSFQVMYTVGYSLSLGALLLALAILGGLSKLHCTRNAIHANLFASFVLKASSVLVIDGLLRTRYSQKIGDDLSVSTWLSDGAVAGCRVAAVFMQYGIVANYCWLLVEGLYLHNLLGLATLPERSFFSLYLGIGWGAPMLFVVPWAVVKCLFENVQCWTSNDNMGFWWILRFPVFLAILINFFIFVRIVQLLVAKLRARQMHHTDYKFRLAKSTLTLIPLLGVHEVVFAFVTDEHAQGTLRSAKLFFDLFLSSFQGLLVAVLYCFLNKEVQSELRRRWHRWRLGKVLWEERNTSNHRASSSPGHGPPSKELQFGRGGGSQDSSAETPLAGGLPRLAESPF

[3] = molecular target: hGcgR (Homo sapiens, UniProt P47871); test: Functional cAMP activation in the presence of 0.1% casein (no HSA); conditions: read-out: Relative cAMP EC50, hGcgR;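 further: intracellular cAMP rise after 30 min at 37 °C, read by HTRF against a cAMP standard curve, scaled from buffer only (0%) to maximal control ligand response (100%)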
hGcgR, sequence (P47871 26-477): as above

[4] = molecular target: T1, hGIPR; test: as above; conditions: read-out: Relative cAMP EC50, hGIPR
[5] = molecular target: T2, hGLP-1R (Homo sapiens, UniProt P43220); test: Functional cAMP activity in the presence of 1% HSA; conditions: read-out: cAMP Rel EC50, hGLP-1R
T2 sequence (P43220 24-463): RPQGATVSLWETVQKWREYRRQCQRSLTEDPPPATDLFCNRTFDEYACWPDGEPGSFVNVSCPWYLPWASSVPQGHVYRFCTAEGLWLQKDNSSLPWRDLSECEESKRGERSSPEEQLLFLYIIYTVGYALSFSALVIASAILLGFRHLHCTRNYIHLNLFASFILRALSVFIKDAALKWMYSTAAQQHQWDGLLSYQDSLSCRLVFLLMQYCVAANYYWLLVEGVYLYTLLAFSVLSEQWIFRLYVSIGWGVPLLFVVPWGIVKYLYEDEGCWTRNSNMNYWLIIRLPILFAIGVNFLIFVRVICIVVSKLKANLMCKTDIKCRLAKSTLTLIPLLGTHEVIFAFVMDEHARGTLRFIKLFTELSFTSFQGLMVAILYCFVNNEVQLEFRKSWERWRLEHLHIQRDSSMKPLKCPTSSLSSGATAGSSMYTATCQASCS

[6] = molecular target: T2, hGLP-1R; test: Functional cAMP activation in the presence of 0.1% casein (no HSA); conditions: read-out: Relative cAMP EC50, hGLP-1R;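 on Relative cAMP EC50, hGIPR: intracellular cAMP rise after 30 min at 37 °C read by HTRF against a standard curve, scaled between buffer alone (0%) and top control ligand concentration (100%), four-parameter fit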;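 on Relative cAMP EC50, hGLP-1R: intracellular cAMP rise after 30 min at 37 °C read by HTRF, normalized between buffer only (0%) and maximal control ligand (100%), four-parameter variable-slope fit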
[7] = in the presence of 0.1% casein (no HSA), geometric mean
[8] = 0.1% casein, no HSA, geometric mean

Row | Compound | EC50 [1] [nM] | EC50 [2] [nM] | EC50 [3] [nM] | EC50 [4] [nM] | EC50 [5] [nM] | EC50 [6] [nM] | EC50 [3, 7] [nM] | EC50 [4, 7] [nM] | EC50 [6, 7] [nM] | EC50 [3, 8] [nM] | EC50 [4, 8] [nM] | EC50 [6, 8] [nM]
1 | CC[C@H](C)[C@H](NC(=O)[C@H](CC(C)C)NC(=O)[C@H](Cc1ccc(O)cc1)NC(=O)[C@@H](CCC(=O)O)NC(=O)[C@@H](NC(=O)[C@H](Cc1ccccc1)NC(=O)[C@H](CCCN)NC(=O)C(C)(C)NC(=O)[C@H](CCC(N)=O)NC(=O)[C@H](C)NC(=O)[C@H](CCCCNC(=O)CC[C@H](NC(=O)CC[C@H](NC(=O)CCCCCCCCCCCCCCCCC(=O)O)C(=O)O)C(=O)O)NC(=O)[C@H](CCCN)NC(=O)[C@H](CC(=O)O)NC(=O)[C@H](CC(C)C)NC(=O)[C@](C)(CC(C)C)NC(=O)[C@@H](NC(=O)[C@](C)(CO)NC(=O)[C@H](Cc1ccncc1)NC(=O)[C@H](CC(=O)O)NC(=O)[C@H](CO)NC(=O)[C@@H](NC(=O)[C@](C)(Cc1ccccc1F)NC(=O)[C@@H](NC(=O)CNC(=O)[C@H](CCC(N)=O)NC(=O)C(C)(C)NC(=O)[C@@H](N)Cc1ccc(O)cc1)[C@@H](C)O)[C@@H](C)O)[C@@H](C)CC)[C@@H](C)CC)C(=O)N[C@@H](CCC(=O)O)C(=O)NCC(=O)NCC(=O)N1CCC[C@H]1C(=O)N[C@@H](CO)C(=O)N[C@@H](CO)C(=O)NCC(=O)N[C@@H](CCC(=O)O)C(=O)N1CCC[C@H]1C(=O)N1CCC[C@H]1C(=O)N1CCC[C@H]1C(=O)N[C@@H](CCC(=O)O)C(N)=O [Example 448] (H-Y[Aib]QGT[αMePhe(2-F)]TSD[4Pal][αMeS]I[αMeL]LD[Orn]K([γGlu-γGlu-C18 diacid])AQ[Aib][Orn]FI[dE]YLIEGGPSSGEPPPE-NH2) | 1.35 | 302 | 4.54 | 0.0171 | 19.5 | 0.336 |  |  |  |  |  | 
2 | H-Y[Aib]QGTFTSD[4Pal]SQ[αMeL]LD[Orn]K([γGlu-γGlu-C18 diacid])AQ[αMe4Pal]AFIEYLIE[Aib]GPSSGAPPPSGSEE-NH2 [Example 937] | 19.7 | 1160 |  |  | 261 |  | 5.52 | 0.222 | 2.52 |  |  | 
3 | H-Y[Aib]QGTFTSDYSI[αMeL]LDKQAAK([AEEA-AEEA-γGlu-C20 diacid])QFIEWLIEGGPSSGEPPPGEG-NH2 [Example 318] | 52.8 | 1970 |  |  | 111 |  | 5.03 | 0.378 | 0.698 |  |  | 
4 | CC[C@H](C)[C@H](NC(=O)[C@H](Cc1ccccc1)NC(=O)[C@H](C)NC(=O)C(C)(C)NC(=O)[C@H](CCC(N)=O)NC(=O)[C@H](C)NC(=O)[C@H](CCCCNC(=O)COCCOCCNC(=O)CC[C@H](NC(=O)CCCCCCCCCCCCCCCCC(=O)O)C(=O)O)NC(=O)[C@H](CCCCN)NC(=O)[C@H](CC(=O)O)NC(=O)[C@H](CC(C)C)NC(=O)[C@](C)(CC(C)C)NC(=O)[C@H](CCCN)NC(=O)[C@H](CO)NC(=O)[C@H](Cc1ccccc1)NC(=O)[C@H](CC(=O)O)NC(=O)[C@H](CO)NC(=O)[C@@H](NC(=O)[C@H](Cc1ccccc1)NC(=O)[C@@H](NC(=O)CNC(=O)[C@H](CCC(N)=O)NC(=O)C(C)(C)NC(=O)[C@@H](N)Cc1ccc(O)cc1)[C@@H](C)O)[C@@H](C)O)C(=O)N[C@@H](CCC(=O)O)C(=O)N[C@@H](Cc1ccc(O)cc1)C(=O)N[C@@H](CC(C)C)C(=O)N[C@@H](CC(C)C)C(=O)N[C@@H](CCC(=O)O)C(=O)N[C@H](C)C(=O)NCC(=O)N1CCC[C@H]1C(=O)N[C@@H](CO)C(=O)N[C@@H](CO)C(=O)NCC(=O)N[C@@H](C)C(=O)N1CCC[C@H]1C(=O)N1CCC[C@H]1C(=O)N1CCC[C@H]1C(=O)N[C@@H](CCC(=O)O)C(=O)NCC(=O)N[C@@H](CCC(=O)O)C(N)=O [Example 206] | 38.8 | 545 |  |  | 372 |  | 2.2 | 0.224 | 2.77 |  |  | 
5 | Y[Aib]QGTFTSD[4Pal]SQ[αMeL]LDKK([γGlu-dE-dE-C18 diacid])AQ[αMe4Pal]AFIEYLIE[Aib]GPSSGAPPPSGSE-NH2 [Example 926] | 13.5 | 1380 |  |  | 600 |  | 13.2 | 0.166 | 7.71 |  |  | 
6 | CC[C@H](C)[C@H](NC(=O)[C@H](Cc1ccccc1)NC(=O)[C@H](C)NC(=O)C(C)(C)NC(=O)[C@H](CCC(N)=O)NC(=O)[C@H](C)NC(=O)[C@H](CCCCNC(=O)COCCOCCNC(=O)CC[C@H](NC(=O)CCCCCCCCCCCCCCCCC(=O)O)C(=O)O)NC(=O)[C@H](CCCCN)NC(=O)[C@H](CC(=O)O)NC(=O)[C@H](CC(C)C)NC(=O)[C@](C)(CC(C)C)NC(=O)[C@H](CCCCN)NC(=O)[C@H](CO)NC(=O)[C@H](Cc1ccncc1)NC(=O)[C@H](CC(=O)O)NC(=O)[C@H](CO)NC(=O)[C@@H](NC(=O)[C@H](Cc1ccccc1)NC(=O)[C@@H](NC(=O)CNC(=O)[C@H](CCC(N)=O)NC(=O)C(C)(C)NC(=O)[C@@H](N)Cc1ccc(O)cc1)[C@@H](C)O)[C@@H](C)O)C(=O)N[C@@H](CCC(=O)O)C(=O)N[C@@H](Cc1ccc(O)cc1)C(=O)N[C@@H](CC(C)C)C(=O)N[C@H](C(=O)N[C@@H](CCC(=O)O)C(=O)N[C@H](C)C(=O)NCC(=O)N[C@@H](CCC(=O)O)C(=O)N[C@@H](CO)C(=O)N[C@@H](CO)C(=O)NCC(=O)N[C@@H](C)C(=O)N1CCC[C@H]1C(=O)N1CCC[C@H]1C(=O)N1CCC[C@H]1C(=O)N[C@@H](CO)C(=O)NCC(=O)N[C@@H](CO)C(N)=O)[C@@H](C)CC [Example 283] | 47.2 | 1470 |  |  | 233 |  | 9.73 | 0.225 | 1.16 |  |  | 
7 | H-Y[Aib]QGT[αMePhe(2-F)]TSD[4Pal]SI[αMeL]LD[Orn]K([γGlu-γGlu-C18 diacid])AQ[αMe4Pal][Orn]FI[dE][αMeY]LIEGGPSSGEPPPESE-NH2 [Example 685] | 0.497 | 160 | 2.18 | 0.00809 | 18.7 | 0.308 |  |  |  |  |  | 
8 | H-Y[Aib]QGTFTSDFS[Orn][αMeL]LDKK([AEEA-γGlu-C20 diacid])AQ[Aib]AFIEYLLAGGPSSGAPPPSGE-NH2 [Example 82] | 87.8 | 1070 |  |  | 394 |  | 6.98 | 0.302 | 3.52 |  |  | 
9 | H-Y[Aib]QGT[αMePhe(2-F)]TSD[4Pal]SI[αMeL]LD[Orn]K([AEEA-γGlu-C18 diacid])AQ[Aib][Orn]FIEYLIEGGPSSGEPPPSEG-NH2 [Example 489] | 1.25 | 523 | 2.31 | 0.0121 | 11.8 | 0.172 |  |  |  |  |  | 
10 | Y[Aib]QGT[αMePhe(2-F)]TSD[4Pal][αMeS]I[αMeL]LD[Orn]K([γGlu-γGlu-C18 diacid])AQ[Aib]QFI[dE][αMeY]LQEGGPSSGEPPPEGTE-NH2 [Example 528] | 1.55 | 474 | 7 | 0.0333 | 24.3 | 0.434 |  |  |  |  |  | 
11 | H-Y[Aib]QGTFTSD[4Pal]SQ[αMeL]LDKK([Glu-Glu-γGlu-C18 diacid])AQ[αMe4Pal]AFIEYLIAGGPSSGAPPPSGEEE-NH2 [Example 1090] | 27.3 | 2010 |  |  | 619 |  | 15.6 | 0.272 | 5.44 |  |  | 
12 | Y[Aib]QGT[αMePhe(2-F)]TSDYSILLDAQAAK([AEEA-γGlu-C20 diacid])EFIEYLIEGGPSSGEPPPSEG-NH2 [Example 351] | 57.5 | 2470 |  |  | 272 |  | 12.1 | 0.243 | 0.679 |  |  | 
13 | H-Y[Aib]QGTFTSD[4Pal]SQ[αMeL]LDKK([AEEA-γGlu-C18 diacid])AQ[αMe4Pal]AFIEWLIEGGPSSGAPPPSGS-NH2 [Example 830] | 44.8 | 809 |  |  | 180 |  | 3.21 | 0.132 | 0.791 |  |  | 
14 | H-Y[Aib]QGT[αMePhe(2-F)]TSD[4Pal]SILLD[Orn]K([γGlu-γGlu-C18 diacid])AQ[Aib]AFIEYLQEGGPSSGEPPPSGTEE-NH2 [Example 583] | 12.3 | 1250 | 6.32 | 0.0692 | 71 | 0.542 |  |  |  |  |  | 
15 | H-Y[Aib]QGT[αMePhe(2-F)]TSD[4Pal][αMeS]I[αMeL]LD[Orn]K([γGlu-γGlu-C18 diacid])AQ[Aib][Orn]FI[dE][αMeY]LAEGGPSSGEPPPSGTE-NH2 [Example 544] | 2.4 | 171 | 2.71 | 0.041 | 43 | 0.623 |  |  |  |  |  | 
16 | H-Y[Aib]QGT[αMePhe(2-F)]TSD[4Pal][αMeS]I[αMeL]LD[Orn]K([γGlu-γGlu-C18 diacid])AQ[αMe4Pal]EFI[dE][αMeY]LIEGGPSSGAPPPEGGGEE-NH2 [Example 1220] | 0.609 | 168 |  |  | 48.5 |  |  |  |  | 1.57 | 0.0099 | 0.674
